Reference: patent US20240067655A1 (NEURON23, INC., priority 2020, published 2024)

What was measured:
[1] = target: T1, wt human LRRK2, catalytic site (Homo sapiens, UniProt Q5S007); assay: TR-FRET LanthaScreen Eu Kinase Binding Assay, LRRK2 wt (Example 72); details: Example 72 text; one statement for LRRK2 (Wt) and LRRK2 (G2019); read-out: IC50, Inhibitory Activity Toward LRRK2 (Wt)
T1 construct: wt human LRRK2, catalytic site; purchased ThermoFisher/USA
Experimental: (§1) The compounds in Tables 5-6 were tested for their inhibitory effect on a set of kinases according to the following procedures.
(§2) The basic protocol for TR-FRET LanthaScreen Eu Kinase Binding Assay inhibitor studies were performed as follows. LanthaScreen Kinase Binding Assays (ThermoFisher/USA) to evaluate inhibitors were performed by addition of 5 μl of test compound in corresponding DMSO dilutions/5 μl of kinase/antibody mixture, 5 μl of tracer into 384 well small volume plates. After incubation for 1 hour at room temperature, plates were read. Data analysis of emission ratios was according to LanthaScreen Eu Kinase Binding Assay protocol.
(§3) Kinase and assay components were adjusted to final concentrations according to the kit protocol. For LRRK2: 5 nM wt human LRRK2, catalytic site, or G2019S human LRRK2, catalytic site (ThermoFisher/USA), 2 nM Eu-Anti-GST Antibody, 10 nM Kinase Tracer 236 in 1× Kinase Buffer A. For NUAK1: 8 nM wt human NUAK1, full length (ThermoFisher/USA), 2 nM Eu-Anti-His Antibody, 5 nM Kinase Tracer 236 in 1× Kinase Buffer A.

[2] = target: T2, wt human NUAK1, full length (Homo sapiens, UniProt O60285); assay: TR-FRET LanthaScreen Eu Kinase Binding Assay, NUAK1 (Example 72); details: Example 72 text; read-out: IC50, Inhibitory Activity Toward NUAK1
T2 construct: 8 nM wt human NUAK1, full length (ThermoFisher/USA); purchased ThermoFisher/USA
T2 sequence (O60285 1-661): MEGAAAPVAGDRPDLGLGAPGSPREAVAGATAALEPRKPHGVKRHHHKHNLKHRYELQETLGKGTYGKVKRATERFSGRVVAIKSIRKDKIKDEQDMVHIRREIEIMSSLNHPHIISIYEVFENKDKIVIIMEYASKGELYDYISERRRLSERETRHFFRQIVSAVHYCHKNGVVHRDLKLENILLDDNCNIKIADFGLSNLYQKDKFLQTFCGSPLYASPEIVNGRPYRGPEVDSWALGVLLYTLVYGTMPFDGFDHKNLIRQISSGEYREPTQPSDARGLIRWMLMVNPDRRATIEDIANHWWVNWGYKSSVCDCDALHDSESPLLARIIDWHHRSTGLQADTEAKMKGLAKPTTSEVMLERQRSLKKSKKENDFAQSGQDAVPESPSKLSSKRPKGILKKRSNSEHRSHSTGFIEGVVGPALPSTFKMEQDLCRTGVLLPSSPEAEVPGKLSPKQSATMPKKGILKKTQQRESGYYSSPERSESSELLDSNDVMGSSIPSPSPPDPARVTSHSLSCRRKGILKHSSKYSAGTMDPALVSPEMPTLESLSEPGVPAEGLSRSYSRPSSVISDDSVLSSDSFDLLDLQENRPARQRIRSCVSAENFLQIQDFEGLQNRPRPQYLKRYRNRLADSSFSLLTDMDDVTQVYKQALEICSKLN
Experimental: as §1, §2, §3

[3] = target: T3, G2019S human LRRK2, catalytic site (Homo sapiens, UniProt Q5S007, G2019S); assay: TR-FRET LanthaScreen Eu Kinase Binding Assay, LRRK2 G2019S (Example 72); details: Example 72 text; one statement for LRRK2 (Wt) and LRRK2 (G2019); read-out: IC50, Inhibitory Activity Toward LRRK2 (G2019)
T3 construct: G2019S human LRRK2, catalytic site; purchased ThermoFisher/USA
Experimental: as §1, §2, §3

[4] = target: T4, wt human TYK2, catalytic site (Homo sapiens, UniProt P29597); assay: HTRF KinEASE assay, TYK2 (Example 72); format: biochemical; details: Example 72 text; read-out: IC50, Inhibitory Activity Toward TYK2
T4 construct: wt human TYK2, catalytic site; purchased SignalChem/CAN
T4 sequence (P29597 897-1176 limits assumed): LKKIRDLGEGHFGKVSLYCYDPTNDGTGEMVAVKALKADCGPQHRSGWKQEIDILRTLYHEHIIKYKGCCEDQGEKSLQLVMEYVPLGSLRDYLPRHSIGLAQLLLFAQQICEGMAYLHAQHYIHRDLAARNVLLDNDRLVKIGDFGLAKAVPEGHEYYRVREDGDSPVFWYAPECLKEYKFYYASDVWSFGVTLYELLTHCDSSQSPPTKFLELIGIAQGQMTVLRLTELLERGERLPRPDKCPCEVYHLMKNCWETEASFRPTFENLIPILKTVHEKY
Experimental: as §1
Basic protocol for HTRF KinEASE assay (Cisbio/FRA) inhibitor studies involved two steps:
Enzymatic step: Addition of 4 μl of test compound in corresponding DMSO dilutions, 4 μl of kinase/substrate mixture, 2 μl of ATP into 384 well small volume plates. Incubation for at least 30 minutes at room temperature.
Detection step: Addition of 5 μl antibody and 5 μl streptavidin-XL665, read plate after 60 minutes. Data analysis of emission ratios according to KinEASE assay protocol.
Kinase and assay components were adjusted to final concentrations according to the kit protocol. For TYK2: 2 nM wt human TYK2, catalytic site (SignalChem/CAN), 1 μM HTRF KinEASE-TK Substrate-biotin, 1 μM ATP in 1× Kinase Buffer

T1 sequence (Q5S007 1879-2138 limits assumed): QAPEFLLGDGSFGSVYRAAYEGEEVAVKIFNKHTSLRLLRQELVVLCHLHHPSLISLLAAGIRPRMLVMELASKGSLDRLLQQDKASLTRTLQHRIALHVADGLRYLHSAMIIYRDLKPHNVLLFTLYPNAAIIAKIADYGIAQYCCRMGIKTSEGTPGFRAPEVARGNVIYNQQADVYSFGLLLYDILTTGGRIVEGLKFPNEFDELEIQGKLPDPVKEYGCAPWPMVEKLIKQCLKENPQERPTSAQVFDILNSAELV
T3 sequence (Q5S007 1879-2138 G2019S limits assumed): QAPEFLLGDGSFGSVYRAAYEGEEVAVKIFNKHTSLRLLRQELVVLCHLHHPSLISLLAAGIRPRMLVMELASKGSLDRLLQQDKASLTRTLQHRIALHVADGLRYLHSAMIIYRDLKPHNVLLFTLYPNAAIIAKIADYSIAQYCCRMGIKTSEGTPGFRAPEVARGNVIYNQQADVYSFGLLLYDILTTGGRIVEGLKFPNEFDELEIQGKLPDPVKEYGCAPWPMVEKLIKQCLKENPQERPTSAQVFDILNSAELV

IC50 [1]	IC50 [2]	IC50 [3]	IC50 [4]	SMILES
< 0.01 µM	0.01 to 0.1 µM	< 0.01 µM		Fc1cccc(F)c1C1=Nc2c[nH]nc2-c2cccc3ncn1c23 [Compound 301, 3-(2,6-difluorophenyl)-7H-1,2a,4,6,7-pentaazabenzo[cd]cyclopenta[f]azulene]
0.01 to 0.1 µM	0.01 to 0.1 µM	0.01 to 0.1 µM		Fc1cccc(F)c1C1=Nc2cn[nH]c2-c2cccc3nnn1c23 [Compound 304, 3-(2,6-difluorophenyl)-7H-1,2,2a,4,6,7-hexaazabenzo[cd]cyclopenta[f]azulene]
0.01 to 0.1 µM	0.01 to 0.1 µM	0.01 to 0.1 µM		Fc1cccc(F)c1C1=Nc2cn[nH]c2-c2nnc3cccn1c2-3 [Compound 307, 9-(2,6-difluorophenyl)-3H-2,3,4,5,8a,10-hexaazabenzo[cd]cyclopenta[h]azulene]
< 0.01 µM	0.01 to 0.1 µM	< 0.01 µM		Fc1cccc(F)c1C1=Nc2cn[nH]c2-c2cnn3c2N1CCC3 [Compound 308, 9-(2,6-difluorophenyl)-3,6,7,8-tetrahydro-2,3,5,5a,8a,10-hexaazabenzo[cd]cyclopenta[h]azulene]

The next lines start with the molecule.

SMILES	IC50 [1]	IC50 [2]	IC50 [3]	IC50 [4]
Fc1cccc(F)c1C1=Nc2c[nH]nc2-c2cccc3cnn1c23 [Compound 302, 4-(2,6-difluorophenyl)-8H-pyrazolo[4′,3′:4,5][1,3]diazepino[6,7,1-hi]indazole]	< 0.01 µM		< 0.01 µM	
Fc1cccc(F)c1C1=Nc2cn[nH]c2-c2cncc3ncn1c23 [Compound 303, 3-(2,6-difluorophenyl)-7H-1,2a,4,6,7,9-hexaazabenzo[cd]cyclopenta[f]azulene]	0.1 to 1 µM	0.01 to 0.1 µM	0.1 to 1 µM	0.1 to 1 µM
Fc1cccc(Cl)c1C1=Nc2cn[nH]c2-c2cccc3cnn1c23 [Compound 306, 4-(2-chloro-6-fluorophenyl)-8H-pyrazolo[4′,3′:4,5][1,3]diazepino[6,7,1-hi]indazole]	0.01 to 0.1 µM	0.01 to 0.1 µM	0.01 to 0.1 µM	
Clc1cccc(Cl)c1C1=Nc2c[nH]nc2-c2cccc3cnn1c23 [Compound 309, 4-(2,6-dichlorophenyl)-8H-pyrazolo[4′,3′:4,5][1,3]diazepino[6,7,1-hi]indazole]	< 0.01 µM		< 0.01 µM	
CC(=O)n1cc2c3c(cccc31)-c1n[nH]cc1N=C2c1c(F)cccc1F [Compound 311, 1-(3-(2,6-difluorophenyl)pyrazolo[3′,4′:6,7]azepino[3,4,5-cd]indol-1(7H)-yl)ethan-1-one]	0.01 to 0.1 µM		0.01 to 0.1 µM	
Cc1cn2c3c(cccc13)-c1n[nH]cc1N=C2c1c(F)cccc1F [Compound 313, 10-(2,6-difluorophenyl)-7-methyl-3H-pyrazolo[4′,3′:4,5][1,3]diazepino[6,7,1-hi]indole]	< 0.01 µM	0.01 to 0.1 µM	< 0.01 µM	
Fc1cc2c3c(cnn3C(c3c(F)cccc3F)=Nc3c[nH]nc3-2)c1 [Compound 314, 4-(2,6-difluorophenyl)-10-fluoro-7H-pyrazolo[4′,3′:4,5][1,3]diazepino[6,7,1-hi]indazole]	0.1 to 1 µM		0.1 to 1 µM	0.1 to 1 µM
Fc1ccc(F)c(C2=Nc3c[nH]nc3-c3cccc4cnn2c34)c1 [Compound 315, 4-(2,5-difluorophenyl)-8H-pyrazolo[4′,3′:4,5][1,3]diazepino[6,7,1-hi]indazole]	< 0.01 µM	0.01 to 0.1 µM	< 0.01 µM	
Fc1ccccc1C1=Nc2c[nH]nc2-c2cccc3cnn1c23 [Compound 316, 4-(2-fluorophenyl)-8H-pyrazolo[4′,3′:4,5][1,3]diazepino[6,7,1-hi]indazole]	0.01 to 0.1 µM		0.01 to 0.1 µM	
Fc1cccc(F)c1C1=Nc2cn[nH]c2-c2ccc(F)c3cnn1c23 [Compound 317, 4-(2,6-difluorophenyl)-11-fluoro-8H-pyrazolo[4′,3′:4,5][1,3]diazepino[6,7,1-hi]indazole]	< 0.01 µM	0.01 to 0.1 µM	< 0.01 µM	
